Like-named read-outs stand apart in the source and are kept apart here.
Test system: stereotypies (bruxism) induced by methyl phenidate
Test: Test of the stereotypies induced by methyl phenidate in rats (inhibition of bruxism)
Type: in vivo, male Wistar rats
Details: Rattus norvegicus, ip, 0.5 h, read-out: ED50 (mean effective dose permitting inhibition of bruxism by 50%)
Experimental: 24 male Wistar rats which weighed between 220 and 240 g and which had eaten nothing for approximately 24 hours were used for this test. Each animal receives a first treatment (reference compound, compound of the invention, or solvent) at a given time before a second treatment (methyl phenidate or physiological serum), which is effected by the i.p. route at the time designated T0. Among the animals used for a test, […] serve as control and receive the following treatments: serum+serum i.p.: 1 animal (serum control); solvent+ 40 mg/kg i.p. methyl phenidate: 2 animals (40 mg/kg i.p. methyl phenidate control); and solvent+0.16, 0.63, 2.5 or 10 mg/kg i.p. of methyl phenidate: 1 animal (0.16, 0.63, 2.5 or 10 mg/kg i.p. methyl phenidate controls).
The test products were administered at given times before the injection of 40 mg/kg i.p. of methyl phenidate at T0. Each animal is observed for a period of 10 seconds. Observations of behaviour were carried out 30 minutes after the treatment with methyl phenidate. A total of 10 observation periods is carried out for each rat at time T30 min. During these observations, the presence (1) or absence (0) of stereotypy is noted.

[1] = rats, i.p., given before 40 mg/kg i.p. methyl phenidate, observed 30 min after methyl phenidate

Structure (SMILES) | ED50 [1] | ED50
Fc1ccc2c(N3CCN(CC4Cc5ccccc54)CC3)noc2c1 (racemic) [Example 1, (R,S)-3-{1-[(benzocyclobutan-1-yl)methyl]piperazin-4-yl}-6-fluoro-1,2-benzisoxazole] | 0.31 mg/kg | –
c1ccc2c(c1)CC2CN1CCN(c2nsc3ccccc23)CC1 (racemic) [Example 4, (R,S)-3-{1-[(benzocyclobutan-1-yl)methyl]piperazin-4-yl}-1,2-benzisothiazole] | 10 mg/kg | –
c1ccc2c(c1)CC2CN1CCN(c2noc3ccccc23)CC1 (racemic) [Example 6, (R,S)-3-{1-[(benzocyclobutan-1-yl)methyl]piperazin-4-yl}-1,2-benzisoxazole] | 1.25 mg/kg | –
COc1cc2c(cc1OC)C(CN1CCN(c3noc4cc(F)ccc34)CC1)C2 (racemic) [Example 17, (R,S)-3-{1-[(4,5-dimethoxybenzocyclobutan-1-yl)methyl]-piperazin-4-yl}-6-fluoro-1,2-benzisoxazole] | 2.5 mg/kg | –
Fc1ccc2c(N3CCN(CC4CCc5ccccc54)CC3)noc2c1 (racemic) [Example 18, (R,S)-3-{1-[(indan-1-yl)methyl]piperazin-4-yl}-6-fluoro-1,2-benzisoxazole] | 10 mg/kg | –
COc1cc2c(cc1OC)C(CN1CCN(c3noc4ccccc34)CC1)C2 (racemic) [Example 19, (R,S)-3-{1-[(4,5-dimethoxybenzocyclobutan-1-yl)-methyl]piperazin-4-yl}-1,2-benzisoxazole] | 1.25 mg/kg | –
CN(C)CCCN1c2ccccc2Sc2ccc(Cl)cc21 [chlorpromazine, reference compound] | – | 1.4 mg/kg

From patent US5173490A, “Benzisoxazole and benzisothiazole compounds” (Adir et Compagnie, priority 1991, dated 1992)
